Here are results for eight compounds from ChEMBL document CHEMBL1127987, “()11-Amino-2,6-dimethyl-1,2,3,4-tetrahydro-6H-quinindolin-1-one, a novel gabaA modulator with potential anxiolytic activity” (Bioorg Med Chem Lett, 1994).

Some results are limits rather than exact numbers.

The test system of test [1] is GABA-A receptor; anion channel. Kind of test: Displacement of [3H]flunitrazepam from rat cerebral cortex (Insoluble). Format: tissue-based.
Test [2] deals with GABA-A receptor; anion channel. Kind of test: Inhibition of [35S]TBPS binding to Gamma-aminobutyric acid A (GABA-A) receptor of rat brain in the presence of 5 uM GABA.
The species entered for test [3] is Rattus norvegicus. The test can be described thus: Minimum effective peroral dose in Geller-Seifter paradigm. Type of test: functional. The conditions noted are these: po, read-out: MED.
The subject of test [4] is Rattus norvegicus. The test can be described thus: Punished responding phase in Geller-Seifter test was determined at 2 hr post-dose of 20 mg/Kg p.o. Type of test: functional.
Test [5] relates to Rattus norvegicus. The test can be described thus: Number of animals responding out of those tested (Nr/N) in Geller-Seifter test was determined at 1 hr post-dose of 20 mg/Kg p.o. (Animals tested 6). Type of test: functional.
For test [6], the system named is Rattus norvegicus. Kind of test: Punished responding phase in Geller-Seifter test was determined at 1 hr post-dose of 20 mg/Kg p.o. Type of test: functional.
Test [7] has as its target GABA-A receptor; anion channel. The test can be described thus: Displacement of [3H]flunitrazepam from rat cerebral cortex. Type of test: tissue-based. (Loss of bound radioactivity is the signal in a displacement assay; it reports binding, not function.)
Test [8] deals with Rattus norvegicus. Kind of test: Number of animals responding out of those tested (Nr/N) in Geller-Seifter test was determined at 2 hr post-dose of 20 mg/Kg p.o. (Animals tested 8). Format: functional.
The subject of test [9] is Rattus norvegicus. Kind of test: Number of animals responding out of those tested (Nr/N) in Geller-Seifter test was determined at 2 hr post-dose of 5 mg/Kg p.o. (Animals tested 16). Type of test: functional.
The test system of test [10] is Rattus norvegicus. The test can be described thus: Number of animals responding out of those tested (Nr/N) in Geller-Seifter test was determined at 1 hr post-dose of 5 mg/Kg p.o. (Animals tested 8). Format: functional.
The subject of test [11] is Rattus norvegicus. The test can be described thus: Punished responding phase in Geller-Seifter test was determined at 2 hr post-dose of 5 mg/Kg p.o. Format: functional.
Test [12] deals with T1, GABA-A receptor; anion channel (Rattus norvegicus) (UniProt O09028+P15431+P18506+P18508+P19969+P20236+P23574+P23576+P28471+P28473+P30191+P62813+P63079+P63138+Q91ZM7+Q9ES14). The conditions noted are these: 0.01 uM.
Description: Inhibition of [35S]TBPS binding to Gamma-aminobutyric acid A (GABA-A) receptor of rat brain in the presence of 5 uM GABA at 0.01 uM
The target in test [13] is T1, GABA-A receptor; anion channel (Rattus norvegicus). The conditions noted are these: Cerebral cortex, 0.12 uM.
Description: Inhibition of [3H]Flunitrazepam binding to rat cerebral cortex at 0.12 uM
Test [14] has as its system Rattus norvegicus. Kind of test: Punished responding phase in Geller-Seifter test was determined at 1 hr post-dose of 5 mg/Kg p.o. Type of test: functional.
Test [15] has as its system Rattus norvegicus. The test can be described thus: Punished responding phase in Geller-Seifter test was determined at 1 hr post-dose of 2.5 mg/Kg p.o. Format: functional.
The test system of test [16] is Rattus norvegicus. The test can be described thus: Number of animals responding out of those tested (Nr/N) in Geller-Seifter test was determined at 2 hr post-dose of 20 mg/Kg p.o. (Animals tested 6). Type of test: functional.
Test [17] has as its system Rattus norvegicus. Kind of test: Number of animals responding out of those tested (Nr/N) in Geller-Seifter test was determined at 2 hr post-dose of 100 mg/Kg p.o. (Animals tested 6). Type of test: functional.
The subject of test [18] is Rattus norvegicus. Kind of test: Punished responding phase in Geller-Seifter test was determined at 2 hr post-dose of 100 mg/Kg p.o. Format: functional.
Test [19] relates to Rattus norvegicus. Kind of test: Number of animals responding out of those tested (Nr/N) in Geller-Seifter test was determined at 2 hr post-dose of 50 mg/Kg p.o. (Animals tested 6). Type of test: functional.
The test system of test [20] is Rattus norvegicus. The test can be described thus: Punished responding phase in Geller-Seifter test was determined at 1 hr post-dose of 100 mg/Kg p.o. Type of test: functional.
For test [21], the system named is Rattus norvegicus. The test can be described thus: Number of animals responding out of those tested (Nr/N) in Geller-Seifter test was determined at 1 hr post-dose of 50 mg/Kg p.o. (Animals tested 6). Type of test: functional.
For test [22], the system named is Rattus norvegicus. The test can be described thus: Number of animals responding out of those tested (Nr/N) in Geller-Seifter test was determined at 2 hr post-dose of 10 mg/Kg p.o. (Animals tested 14). Format: functional.
The subject of test [23] is Rattus norvegicus. The test can be described thus: Punished responding phase in Geller-Seifter test was determined at 1 hr post-dose of 50 mg/Kg p.o. Format: functional.
In test [24] the test system is Rattus norvegicus. The test can be described thus: Punished responding phase in Geller-Seifter test was determined at 1 hr post-dose of 10 mg/Kg p.o. Format: functional.
In test [25] the test system is Rattus norvegicus. The test can be described thus: Number of animals responding out of those tested (Nr/N) in Geller-Seifter test was determined at 1 hr post-dose of 10 mg/Kg p.o. (Animals tested 6). Type of test: functional.
Test [26] concerns Rattus norvegicus. Kind of test: Number of animals responding out of those tested (Nr/N) in Geller-Seifter test was determined at 1 hr post-dose of 2.5 mg/Kg p.o. (Animals tested 6). Type of test: functional.
The subject of test [27] is Rattus norvegicus. The test can be described thus: Number of animals responding out of those tested (Nr/N) in Geller-Seifter test was determined at 1 hr post-dose of 5 mg/Kg p.o. (Animals tested 14). Type of test: functional.
Test [28] relates to Rattus norvegicus. Kind of test: Punished responding phase in Geller-Seifter test was determined at 2 hr post-dose of 10 mg/Kg p.o. Format: functional.
Test [29] relates to Rattus norvegicus. The test can be described thus: Number of animals responding out of those tested (Nr/N) in Geller-Seifter test was determined at 1 hr post-dose of 100 mg/Kg p.o. (Animals tested 6). Format: functional.
In test [30] the test system is Rattus norvegicus. The test can be described thus: Punished responding phase in Geller-Seifter test was determined at 2 hr post-dose of 50 mg/Kg p.o. Format: functional.
Test [31] has as its system Rattus norvegicus. Kind of test: Number of animals responding out of those tested (Nr/N) in Geller-Seifter test was determined at 1 hr post-dose of 20 mg/Kg p.o. (Animals tested 16). Type of test: functional.
The test system of test [32] is Rattus norvegicus. The test can be described thus: Number of animals responding out of those tested (Nr/N) in Geller-Seifter test was determined at 1 hr post-dose of 5 mg/Kg p.o. (Animals tested 6). Format: functional.
For test [33], the system named is Rattus norvegicus. The test can be described thus: Number of animals responding out of those tested (Nr/N) in Geller-Seifter test was determined at 1 hr post-dose of 50 mg/Kg p.o. (Animals tested 16). Type of test: functional.
Test [34] deals with Rattus norvegicus. Kind of test: Number of animals responding out of those tested (Nr/N) in Geller-Seifter test was determined at 1 hr post-dose of 100 mg/Kg p.o. (Animals tested 16). Type of test: functional.
Test [35] concerns Rattus norvegicus. The test can be described thus: Number of animals responding out of those tested (Nr/N) in Geller-Seifter test was determined at 2 hr post-dose of 20 mg/Kg p.o. (Animals tested 16). Format: functional.
For test [36], the system named is Rattus norvegicus. The test can be described thus: Number of animals responding out of those tested (Nr/N) in Geller-Seifter test was determined at 2 hr post-dose of 50 mg/Kg p.o. (Animals tested 16). Type of test: functional.
The test system of test [37] is Rattus norvegicus. The test can be described thus: Number of animals responding out of those tested (Nr/N) in Geller-Seifter test was determined at 1 hr post-dose of 10 mg/Kg p.o. (Animals tested 15). Format: functional.

For the compound `Cn1c2ccccc2c2c(N)c3c(nc21)CCOC3=O`, the IC50 result in [1] and in [2] was “Insoluble” throughout. Also, the minimal effective dose in the test filed under Rattus norvegicus [3] was over 20 mg/kg.

Consider `CCC(=O)c1c(C)nc2c(c1N)c1ccccc1n2C`, for which the figures for the Change in the test with Rattus norvegicus [4] and with Rattus norvegicus [6] were 28% and 41%, respectively. The Nr/N in the test with Rattus norvegicus [5] and with Rattus norvegicus [8] was 5 each time. Further, the IC50 (as a rule, the point on the concentration scale where inhibition reaches its midpoint) in [2] (read-out: IC50) is 1600 nM; in test [7], over 100000 nM. Besides, the minimal effective dose in the test listed under Rattus norvegicus [3] turned out to be 20 mg/kg.

For `Cc1nc2c(c(N)c1C(=O)O)c1ccccc1n2C`, the IC50 in test [2] (read-out: IC50) and in test [7] was over 100000 nM each time. In the test filed under Rattus norvegicus [3], the minimal effective dose is over 50 mg/kg.

Turning to `CN1C(=O)CN=C(c2ccccc2)c2cc(Cl)ccc21` [DIAZEPAM], the Nr/N was determined as 8 with Rattus norvegicus [9] and 6 with Rattus norvegicus [10]. Besides, the Change was 38% in the test with Rattus norvegicus [11] and 57% in the test with Rattus norvegicus [14]. In addition, the inhibition (usually how much of the control response was suppressed) was under 50% in test [12] and 100% in test [13]. Further, in the test listed under Rattus norvegicus [3], the minimal effective dose came to 2.5 mg/kg.

Regarding `CCC1CCc2nc3c(c(N)c2C1=O)c1ccccc1n3C` (centres undefined), the IC50 in test [2] (read-out: IC50) came out at 940 nM. The minimal effective dose in the test filed under Rattus norvegicus [3] is 20 mg/kg.

As for `CCCC(=O)c1c(C)nc2c(c1N)c1ccccc1n2C`, in test [2] (read-out: IC50), the IC50 came to 2300 nM. The minimal effective dose in the test filed under Rattus norvegicus [3] worked out at 20 mg/kg.

As to `CC1CCc2nc3c(c(N)c2C1=O)c1ccccc1n3C` (centres undefined), the Change amounted to 0% with Rattus norvegicus [15]; 36% in the test with Rattus norvegicus [4]; 141% with Rattus norvegicus [18]; 137% in the test with Rattus norvegicus [20]; 146% in the test on Rattus norvegicus [23]; 43% in the test with Rattus norvegicus [24]. The Change worked out at 22% in the test with Rattus norvegicus [28], 52% with Rattus norvegicus [6], 62% with Rattus norvegicus [30] and 19% in the test with Rattus norvegicus [14]. The Nr/N in the test on Rattus norvegicus [16] was 6; in the test on Rattus norvegicus [17], 6; with Rattus norvegicus [5], 5; in the test with Rattus norvegicus [19], 6; with Rattus norvegicus [21], 5; in the test with Rattus norvegicus [22], 7. Besides, the Nr/N was determined as 5 in the test with Rattus norvegicus [25], 0 with Rattus norvegicus [26], 8 in the test on Rattus norvegicus [27] and 6 with Rattus norvegicus [29]. The IC50 in test [2] (read-out: IC50) was 950 nM; in test [7], over 100000 nM. Further, in the test listed under Rattus norvegicus [3], the minimal effective dose was 5 mg/kg.

With `CCOC(=O)c1c(C)nc2c(c1N)c1ccccc1n2C`, the Change with Rattus norvegicus [4] amounted to 6%; in the test on Rattus norvegicus [20], 122%; with Rattus norvegicus [23], 63%; in the test with Rattus norvegicus [24], 20%; in the test on Rattus norvegicus [6], 22%; with Rattus norvegicus [30], 4%. For the same compound, the Change in the test on Rattus norvegicus [14] is reported as 2%. For the same compound, the Nr/N worked out at 12 in the test on Rattus norvegicus [31]; 5 in the test on Rattus norvegicus [32]; 15 in the test with Rattus norvegicus [33]; 14 with Rattus norvegicus [34]; 6 in the test on Rattus norvegicus [35]; 6 with Rattus norvegicus [36]. The same compound showed a Nr/N in the test on Rattus norvegicus [37] of 10. The IC50 in test [2] (read-out: IC50) was 2000 nM; in test [7], over 100000 nM. Further, the minimal effective dose in the test filed under Rattus norvegicus [3] came to 10 mg/kg.
